Test results taken from patent publication US8513428B2, “Process for preparing atazanavir bisulfate and novel forms” (Bristol-Meyers Squibb Company, priority 2009, dated 2013).
Where a name gives a salt, the structure may show the parent alone.

Test: moisture-sorption isotherms
Format: physicochemical
Conditions: in the range from 25 to 75% RH at 25° C.

moisture-sorption isotherms weight gain: about 0.1%
Compound: COC(=O)N[C@H](C(=O)N[C@@H](Cc1ccccc1)[C@@H](O)CN(Cc1ccc(-c2ccccn2)cc1)NC(=O)[C@@H](NC(=O)OC)C(C)(C)C)C(C)(C)C [Form A, 1-[4-(Pyridin-2-yl)phenyl]-5(S)-2,5-bis{[N-(methoxycarbonyl)-L-tert-leucinyl]amino}-4-(S)-hydroxy-6-phenyl-2-azahexane, Bisulfate salt (Form A)]
